{"source": "patent US8431715B2", "about": "“Thiazole compound (as PPARδ) ligand and pharmaceutical, cosmetic and health food comprised thereof” (Seoul National University Industry Foundation, priority 2007, dated 2013)", "target": "T1, PPARγ (Homo sapiens, UniProt P37231)", "T1 construct": "Full length PPARs plasmid DNA, reporter DNA confirming PPARs activity owing to its luciferase activity; expressed in transfected cells; host or cells: CV-1 cells", "T1 sequence (P37231 1-505)": "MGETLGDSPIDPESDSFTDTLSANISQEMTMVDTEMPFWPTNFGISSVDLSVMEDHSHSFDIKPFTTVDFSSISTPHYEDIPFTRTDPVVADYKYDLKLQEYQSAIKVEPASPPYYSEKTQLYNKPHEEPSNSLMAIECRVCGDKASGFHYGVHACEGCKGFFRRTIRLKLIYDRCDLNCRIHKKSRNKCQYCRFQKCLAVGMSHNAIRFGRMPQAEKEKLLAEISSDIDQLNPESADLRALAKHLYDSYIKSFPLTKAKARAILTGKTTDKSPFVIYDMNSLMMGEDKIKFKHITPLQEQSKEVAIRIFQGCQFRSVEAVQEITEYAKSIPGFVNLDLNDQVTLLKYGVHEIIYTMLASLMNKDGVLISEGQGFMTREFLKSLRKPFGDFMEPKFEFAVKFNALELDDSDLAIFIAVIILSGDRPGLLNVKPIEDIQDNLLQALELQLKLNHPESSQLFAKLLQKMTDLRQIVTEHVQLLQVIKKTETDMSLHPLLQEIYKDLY", "test": "Transfection assay (luciferase reporter) in CV-1 cells, PPARγ", "format": "cell-based", "conditions": "24 hours treatment", "experimental": "The PPARδ activities of the R-form compound represented by formula 1 of the present invention and the S-form compound represented by formula 2 were measured by transfection assay. In addition, the selectivity to PPAR subtypes, PPARα and PPARγ, was examined. Cytotoxicity was tested by MTT assay and in vivo activity and toxicity was investigated by animal experiment using mice.\nCV-1 cells were used in this assay. The cells were inoculated in a 96-well plate containing DMEM supplemented with 10% FBS, DBS (delipidated) and 1% penicillin/streptomycin and cultured in a 37 °C, 5% CO2 incubator. The experiment was performed according to the steps of inoculation, transfection, sample treatment and confirmation. Particularly, CV-1 cells were inoculated in a 96 well-plate (5000 cells/well), followed by transfection 24 hours later. Full length PPARs plasmid DNA, reporter DNA confirming PPARs activity owing to its luciferase activity, β-galactosidase DNA providing information on transfection efficiency, and transfection reagent were used for the transfection. The compounds of formula 1 and formula 2 were dissolved in dimethylsulfoxide (DMSO), which were treated to the cells via media at different concentrations. […] Luciferase activity and β-galactosidaseactivity were measured with Luminometer and a microplate reader. […] A graph was made with those values and EC50 was calculated."}
{"smiles": "Cc1cc(S[C@H](Cc2ccccc2)c2sc(-c3ccc(C(F)(F)F)cc3)nc2C)ccc1OCC(=O)O", "note": "(racemic) [formula 1]", "values": [{"measurement": "EC50 PPARγ", "value": "ia"}]}
